The values that follow are results of earlier work, collected in PubChem BioAssay AID1259409 (Chemical Carcinogenesis Research Information System (CCRIS), 2018).

The series has as its system rodent chemically induced tumor inhibition, incidence and multiplicity. The series can be described thus: CCRIS tumor inhibitor studies. The following applies: Route [Inhibitor]: ORAL, Promoter: NONE USED.

On to `CC1=C(CC(=O)O)c2cc(F)ccc2/C1=C\c1ccc(S(C)=O)cc1` (stereo unspecified), for which the “tumour outcome (control, treated, inhibition, significance)” value reads like this: (Carcinogen: 1,2-DIMETHYLHYDRAZINE HYDROCHLORIDE, 306-37-6, Dose [Inhibitor]: 5 MG/KG BW IN DRINKING WATER ADMINISTERED CONCURRENTLY WITH CARCINOGEN FOR 24 WK (STUDY DURATION: 24 WK), Species: MOUSE, Strain/Sex: BALB/FEMALE, Target Tissue: Type of Lesion: COLON: MICROADENOMA, Dose [Carcinogen]: 25 MG/KG BW IN 0.4% EDTA AND 0.9% NORMAL SALINE 1/WK FOR 24 WK) 35/38 (92%), 18/38 (47%), 49%, not calculated; (Carcinogen: 1,2-DIMETHYLHYDRAZINE HYDROCHLORIDE, 306-37-6, Dose [Inhibitor]: 5 MG/KG BW IN DRINKING WATER BEGINNING 10 D POST LAST CARCINOGEN DOSE AND CONTINUING FOR 78 D (STUDY DURATION: 28 WK), Species: MOUSE, Strain/Sex: BALB/FEMALE, Target Tissue: Type of Lesion: COLON: MICROADENOMA, Dose [Carcinogen]: 25 MG/KG BW IN 0.4% EDTA AND 0.9% NORMAL SALINE 1/WK FOR 17 WK) 15/18 (83%), 13/18 (72%), 13%, not calculated; (Carcinogen: 1-METHYL-1-NITROSOUREA, 684-93-5, Dose [Inhibitor]: 0, 0.06% IN A PURIFIED HIGH-FAT (24.6%) DIET FOR 37 WK BEGINNING 1 WK POST CARCINOGEN DOSE (STUDY DURATION:38 WK), Species: RAT, Strain/Sex: SPRAGUE-DAWLEY/FEMALE, Target Tissue: Type of Lesion: MAMMARY GLAND: CARCINOMA, Dose [Carcinogen]: 12.5 MG/KG BW ONCE) 30%, 9%, 70%, p<0.05; (Carcinogen: 1-METHYL-1-NITROSOUREA, 684-93-5, Dose [Inhibitor]: 0, 0.06% IN DIET FOR DURATION OF STUDY BEGINNING 7 D POST CARCINOGEN DOSE (STUDY DURATION: 24 WK), Species: RAT, Strain/Sex: SPRAGUE-DAWLEY/FEMALE, Target Tissue: Type of Lesion: MAMMARY GLAND: ADENOCARCINOMA, Dose [Carcinogen]: 50 MG/KG ONCE) 93%, 87%, 6%, not significant; (Carcinogen: 4-(METHYLNITROSAMINO)-1-(3-PYRIDYL)-1-BUTANONE, 64091-91-4, Dose [Inhibitor]: 0, 0.13 G/KG DIET (EFFECTIVE DOSE 0.95 UMOL/D) BEGINNING 2 WK PRIOR TO CARCINOGEN TREATMENT AND CONTINUING FOR DURATION, Species: MOUSE, Strain/Sex: STRAIN-A/FEMALE, Target Tissue: Type of Lesion: LUNG: TUMORS, Dose [Carcinogen]: 9.0-9.2 MG/MOUSE (TOTAL DOSE) IN DRINKING WATER ADMINISTERED OVER 7 WK) 28/28 (100%), 23/25 (92%), 8%, not significant; (Carcinogen: 4-(METHYLNITROSAMINO)-1-(3-PYRIDYL)-1-BUTANONE, 64091-91-4, Dose [Inhibitor]: 0, 15 MG/KG BW IN DIET FOR DURATION OF STUDY BEGINNING 2 WK PRIOR TO CARCINOGEN TREATMENT (STUDY DURATION: 25 WK), Species: MOUSE, Strain/Sex: STRAIN-A/FEMALE, Target Tissue: Type of Lesion: LUNG: TUMOR, Dose [Carcinogen]: 9.1 MG/MOUSE (TOTAL DOSE) ADMINISTERED IN DRINKING WATER OVER 7 WK) 23/24 (96%), 25/25 (100%), -4%, not significant. Moreover, the “tumour outcome (control, treated, inhibition, significance)” value (Carcinogen: 4-(METHYLNITROSAMINO)-1-(3-PYRIDYL)-1-BUTANONE, 64091-91-4, Dose [Inhibitor]: 0, 123 MG/KG IN DIET FOR 9 WK BEGINNING 2 WK PRIOR TO CARCINOGEN TREATMENT (STUDY DURATION: 25 WK), Species: MOUSE, Strain/Sex: STRAIN-A/FEMALE, Target Tissue: Type of Lesion: FORESTOMACH: TUMOR, Dose [Carcinogen]: 9.1 MG IN DRINKING WATER FOR 7 WK) is given as 7/25 (28%), 2/25 (8%), 71%, not significant; the “tumour outcome (control, treated, inhibition, significance)” value (Carcinogen: 4-(METHYLNITROSAMINO)-1-(3-PYRIDYL)-1-BUTANONE, 64091-91-4, Dose [Inhibitor]: 0, 123 MG/KG IN DIET FOR 16 WK BEGINNING POST CARCINOGEN TREATMENT (STUDY DURATION: 25 WK), Species: MOUSE, Strain/Sex: STRAIN-A/FEMALE, Target Tissue: Type of Lesion: FORESTOMACH: TUMOR, Dose [Carcinogen]: 9.1 MG IN DRINKING WATER FOR 7 WK) was 7/25 (28%), 3/22 (14%), 50%, not significant; the “tumour outcome (control, treated, inhibition, significance)” value (Carcinogen: 4-(METHYLNITROSAMINO)-1-(3-PYRIDYL)-1-BUTANONE, 64091-91-8, Dose [Inhibitor]: 0, 123 MG/KG IN DIET FOR 25 WK BEGINNING 2 WK PRIOR TO CARCINOGEN TREATMENT (STUDY DURATION: 25 WK), Species: MOUSE, Strain/Sex: STRAIN-A/FEMALE, Target Tissue: Type of Lesion: FORESTOMACH: TUMOR, Dose [Carcinogen]: 9.1 MG IN DRINKING WATER FOR 7 WK) is recorded as 7/25 (28%), 1/25 (4%), 86%, p<0.05; the “tumour outcome (control, treated, inhibition, significance)” value (Carcinogen: AZOXYMETHANE, 25843-45-2, Dose [Inhibitor]: 0, 160 PPM IN DIET FOR DURATION OF STUDY BEGINNING 2 WK PRIOR TO CARCINOGEN TREATMENT (STUDY DURATION: 54 WK), Species: RAT, Strain/Sex: F344/MALE, Target Tissue: Type of Lesion: COLON: ADENOCARCINOMA, Dose [Carcinogen]: 15 MG/KG BW 1/WK FOR 2 WK) is 81%, 47%, 42%, p<0.01; the “tumour outcome (control, treated, inhibition, significance)” value (Carcinogen: AZOXYMETHANE, 25843-45-2, Dose [Inhibitor]: 0, 320 PPM IN DIET FOR 38 WK BEGINNING 14 WK POST CARCINOGEN TREATMENT (STUDY DURATION: 54 WK), Species: RAT, Strain/Sex: F344/MALE, Target Tissue: Type of Lesion: COLON: ADENOCARCINOMA, Dose [Carcinogen]: 15 MG/KG BW 1/WK FOR 2 WK) is reported as 81%, 26%, 68%, p<0.0001; the “tumour outcome (control, treated, inhibition, significance)” value (Carcinogen: AZOXYMETHANE, 25843-45-2, Dose [Inhibitor]: 0, 320 PPM IN DIET FOR DURATION OF STUDY BEGINNING 2 WK PRIOR TO CARCINOGEN TREATMENT (STUDY DURATION: 54 WK), Species: RAT, Strain/Sex: F344/MALE, Target Tissue: Type of Lesion: COLON: ADENOCARCINOMA, Dose [Carcinogen]: 15 MG/KG BW 1/WK FOR 2 WK) is reported as 81%, 36%, 56%, p<0.0001. In addition, the “tumour outcome (control, treated, inhibition, significance)” value (Carcinogen: AZOXYMETHANE, 25843-45-2, Dose [Inhibitor]: 0, 400 PPM IN DIET FOR 29 WK BEGINNING 1 WK POST CARCINOGEN TREATMENT (STUDY DURATION: 32 WK), Species: RAT, Strain/Sex: F344/MALE, Target Tissue: Type of Lesion: COLON: ADENOMA, Dose [Carcinogen]: 15 MG/KG BW 1/WK FOR 2 WK) is given as 77%, 30%, 61%, p<0.05; the “tumour outcome (control, treated, inhibition, significance)” value (Carcinogen: AZOXYMETHANE, 25843-45-2, Dose [Inhibitor]: 0, 400 PPM IN DIET FOR 29 WK BEGINNING 1 WK POST CARCINOGEN TREATMENT (STUDY DURATION: 32 WK), Species: RAT, Strain/Sex: F344/MALE, Target Tissue: Type of Lesion: COLON: CARCINOMA, Dose [Carcinogen]: 15 MG/KG BW 1/WK FOR 2 WK) is reported as 53%, 13%, 75%, p<0.05; the “tumour outcome (control, treated, inhibition, significance)” value (Carcinogen: N-BUTYL-N-(4-HYDROXYBUTYL)NITROSAMINE, 3817-11-6, Dose [Inhibitor]: 0, 200 MG/KG DIET FOR 24 WK BEGINNING 1 WK PRIOR TO CARCINOGEN TREATMENT (STUDY DURATION: 24 WK), Species: MOUSE, Strain/Sex: BDF/MALE, Target Tissue: Type of Lesion: URINARY BLADDER: TRANSITIONAL CELL CARCINOMA, Dose [Carcinogen]: 7.5 MG 1/WK FOR 8 WK) is on record as 20/74 (27%), 6/73 (8%), 70%, p<0.01; the “tumour outcome (control, treated, inhibition, significance)” value (Carcinogen: N-BUTYL-N-(4-HYDROXYBUTYL)NITROSAMINE, 3817-11-6, Dose [Inhibitor]: 0, 400 MG/KG DIET FOR 24 WK BEGINNING 1 WK PRIOR TO CARCINOGEN TREATMENT (STUDY DURATION: 24 WK), Species: MOUSE, Strain/Sex: BDF/MALE, Target Tissue: Type of Lesion: URINARY BLADDER: TRANSITIONAL CELL CARCINOMA, Dose [Carcinogen]: 7.5 MG 1/WK FOR 8 WK) is 20/74 (27%), 2/75 (3%), 89%, p<0.01; the “tumour outcome (control, treated, inhibition, significance)” value (Carcinogen: N-NITROSOMETHYLBENZYLAMINE, 937-40-6, Dose [Inhibitor]: 0, 125 PPM IN DIET FOR DURATION OF STUDY BEGINNING 1 WK POST CARCINOGEN TREATMENT (STUDY DURATION: 25 WK), Species: RAT, Strain/Sex: F344/MALE, Target Tissue: Type of Lesion: ESOPHAGUS: TUMOR, Dose [Carcinogen]: 1 MG/KG 3/WK FOR 5 WK) was 15/15 (100%), 14/15 (93%), 7%, not significant; the “tumour outcome (control, treated, inhibition, significance)” value (Carcinogen: N-NITROSOMETHYLBENZYLAMINE, 937-40-6, Dose [Inhibitor]: 0, 125 PPM IN DIET FOR DURATION OF STUDY BEGINNING 2 WK PRIOR TO CARCINOGEN TREATMENT (STUDY DURATION: 25 WK), Species: RAT, Strain/Sex: F344/MALE, Target Tissue: Type of Lesion: ESOPHAGUS: TUMOR, Dose [Carcinogen]: 1 MG/KG 3/WK FOR 5 WK) is reported as 15/15 (100%), 14/15 (93%), 7%, not significant. The outcome (Carcinogen: 4-(METHYLNITROSAMINO)-1-(3-PYRIDYL)-1-BUTANONE, 64091-91-4, Dose [Inhibitor]: 0, 123 MG/KG DIET FOR 2 WK BEGINNING 2 WK PRIOR TO CARCINOGEN TREATMENT (STUDY DURATION: 18 WK), Species: MOUSE, Strain/Sex: STRAIN-A/FEMALE, Target Tissue: Type of Lesion: LUNG: TUMOR, Dose [Carcinogen]: 2 MG IN 0.5 ML 0.9% SALINE ONCE) is recorded as 25/25 (100%), 20/20 (100%), o%, not significant; the outcome (Carcinogen: 4-(METHYLNITROSAMINO)-1-(3-PYRIDYL)-1-BUTANONE, 64091-91-4, Dose [Inhibitor]: 0, 123 MG/KG DIET FOR 18 WK BEGINNING 2 WK PRIOR TO CARCINOGEN TREATMENT (STUDY DURATION: 18 WK), Species: MOUSE, Strain/Sex: STRAIN-A/FEMALE, Target Tissue: Type of Lesion: LUNG: TUMOR, Dose [Carcinogen]: 2 MG IN 0.5 ML 0.9% SALINE ONCE) is listed as 25/25 (100%), 24/24 (100%), o%, not significant; the outcome (Carcinogen: 4-(METHYLNITROSAMINO)-1-(3-PYRIDYL)-1-BUTANONE, 64091-91-4, Dose [Inhibitor]: 0, 123 MG/KG DIET FOR 25 WK BEGINNING 2 WK PRIOR TO CARCINOGEN TREATMENT (STUDY DURATION: 25 WK), Species: MOUSE, Strain/Sex: STRAIN-A/FEMALE, Target Tissue: Type of Lesion: LUNG: TUMOR, Dose [Carcinogen]: 62.4 UG/ML IN DRINKING WATER FOR 7 WK FOR A CUMULATIVE DOSE OF 9.1 MG/MOUSE) is 25/25 (100%), 24/24 (100%), o%, not significant.
